Laboratory results from PMC6982876, “Synthesis of Novel Benzodifuranyl; 1,3,5-Triazines; 1,3,5-Oxadiazepines; and Thiazolopyrimidines Derived from Visnaginone and Khellinone as Anti-Inflammatory and Analgesic Agents” (Molecules, 2020).
Marks after values point to notes of the source that are not given here.

Columns and labels:
ovine COX-1 = biological target: T1, ovine COX-1 (Ovis aries, UniProt P05979); assay: In vitro COX inhibitor screening assay (EIA kit, Cayman), COX-1; type: biochemical; details: mean of two determinations, enzyme kit, read-out: COX1 IC50
T1 construct: purchased Cayman Chemical, Ann Arbor, MI, USA 560131
T1 sequence (P05979 25-600): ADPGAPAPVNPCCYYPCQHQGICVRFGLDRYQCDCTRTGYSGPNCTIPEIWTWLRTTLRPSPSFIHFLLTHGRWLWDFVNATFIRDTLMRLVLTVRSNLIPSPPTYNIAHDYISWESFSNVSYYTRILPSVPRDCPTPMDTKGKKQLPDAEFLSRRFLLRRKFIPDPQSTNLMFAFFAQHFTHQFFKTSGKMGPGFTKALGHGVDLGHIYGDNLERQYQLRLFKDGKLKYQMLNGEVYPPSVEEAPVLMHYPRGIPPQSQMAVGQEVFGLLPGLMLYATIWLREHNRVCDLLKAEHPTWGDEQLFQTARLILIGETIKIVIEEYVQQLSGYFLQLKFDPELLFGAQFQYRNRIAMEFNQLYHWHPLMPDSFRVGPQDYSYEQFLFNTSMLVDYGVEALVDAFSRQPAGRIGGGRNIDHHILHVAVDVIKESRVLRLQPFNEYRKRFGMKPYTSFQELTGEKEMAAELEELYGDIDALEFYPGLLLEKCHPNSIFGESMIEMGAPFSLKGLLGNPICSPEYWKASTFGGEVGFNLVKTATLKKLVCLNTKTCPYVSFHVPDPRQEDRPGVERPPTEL
Protocol: (§1) Furthermore, the selectivity index for COX-2 (COX-1 IC50 / COX-2 IC50) was calculated for the compounds.

human recombinant COX-2 = biological target: T2, human recombinant COX-2 (Homo sapiens, UniProt P35354); assay: In vitro COX inhibitor screening assay (EIA kit, Cayman), COX-2; type: biochemical; details: for COX2 (SI) selectivity index: COX-1 IC50 / COX-2 IC50; for IC50: COX-2, mean of two determinations, enzyme kit, read-out: COX2 IC50
T2 construct: purchased Cayman Chemical, Ann Arbor, MI, USA 560131
T2 sequence (P35354 18-604): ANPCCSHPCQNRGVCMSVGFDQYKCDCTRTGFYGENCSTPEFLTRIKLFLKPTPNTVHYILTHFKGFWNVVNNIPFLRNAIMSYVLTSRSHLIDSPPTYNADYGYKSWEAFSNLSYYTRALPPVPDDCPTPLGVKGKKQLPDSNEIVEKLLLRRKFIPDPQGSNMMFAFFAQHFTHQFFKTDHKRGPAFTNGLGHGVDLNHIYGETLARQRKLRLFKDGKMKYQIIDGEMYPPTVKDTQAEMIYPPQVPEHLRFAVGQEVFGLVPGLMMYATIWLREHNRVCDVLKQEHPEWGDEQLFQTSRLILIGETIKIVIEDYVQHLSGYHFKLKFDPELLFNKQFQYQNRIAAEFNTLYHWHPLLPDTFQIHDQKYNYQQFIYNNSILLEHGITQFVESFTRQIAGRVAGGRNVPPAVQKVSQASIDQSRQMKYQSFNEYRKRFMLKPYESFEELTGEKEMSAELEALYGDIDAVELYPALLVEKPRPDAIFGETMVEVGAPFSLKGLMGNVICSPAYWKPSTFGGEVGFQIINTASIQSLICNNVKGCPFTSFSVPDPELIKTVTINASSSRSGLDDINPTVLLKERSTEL
Protocol: as §1

[1] = tested on: acetic acid-induced writhing in mice; assay: Acetic acid-induced writhing test (analgesic activity); type: in vivo; details: 10 mg/kg p.o., n = 5; for Writhing Number in 20 min (Mean ± SEM): acetic acid 1 h after dosing; for Analgesic Activity (% protection): writhing test
In short: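 Mice of 25–30 g, fasted 8 h, given compound at 10 mg/kg p.o., five animals per group. One hour later, 1% acetic acid i.p. (0.1 mL/10 g); writhes counted over 20 min. Percent protection calculated against the saline control group.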

[2] = tested on: carrageenan-induced paw edema in rats; assay: Carrageenan-induced paw edema (anti-inflammatory activity); type: in vivo; details: 10 mg/kg oral; for % Change in Paw Height (Mean ± SEM): n = 5
In short: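 Albino rats weighing 150–180 g, in groups of five, received test compounds orally at 10 mg/kg; one hour later 0.1 mL of 1% carrageenan was injected into the left hind paw. Paw inflammation height was measured by digital caliber plethysmometer at 0, 1, 2 and 3 h, expressed as percentage increase relative to the uninjected right paw, with percentage edema inhibition versus control calculated at 3 h.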

[3] = tested on: interleukin-1 beta (IL-1 β); assay: ELISA of serum interleukin-1 beta after paw edema test; type: in vivo, rats; details: rat serum at the end of the paw edema test, mean ± SEM, n = 5
Protocol: IL1 is one of the important inflammatory mediators and is used to confirm the anti-inflammatory activities of new anti-inflammatory compounds. At the end of the paw edema test, blood samples were collected from the orbital axis of the eye under light ether anesthesia. Sera were separated after centrifugation of blood at 5000 rpm for 15 min; the sera were stored at –80 °C until the ELISA assay was performed according to the manufacturer instructions.

Row | IC50 (ovine COX-1) [µM] | COX2 (SI) selectivity index (human recombinant COX-2) | IC50 (human recombinant COX-2) [µM] | melting point [°C] | Compound | Writhing Number in 20 min (Mean ± SEM) [1] | Analgesic Activity (% protection) [1] | % Change in Paw Height (Mean ± SEM) ([2]; 1 hr after carrageenan) | % Change in Paw Height (Mean ± SEM) ([2]; 2 hr after carrageenan) | Anti-Inflammatory Activity (% Inhibition of Edema) ([2]; 3 hr after carrageenan) [%] | % Change in Paw Height (Mean ± SEM) ([2]; 3 hr after carrageenan) | IL-1 β Concentration [3]
1 | 5.71 | 91 | 0.063 | > 350 | COc1c2occc2c(OC)c2c(C)c(C3=NC4=CC(=O)N5C(=O)C(=Cc6ccccc6)SC5N4C(=O)C(=Cc4ccccc4)O3)oc12 (stereo not drawn) [Compound 13d, 2,10-di(benzylidene)-8-(4,8-dimethoxy-3-methylbenzo[1,2-b:5,4-b`]difuran-2-yl)-5H, 12aH -thiazolo[2’,3’:2,3]pyrimido[6,1-d][1,3,5]oxadiazepine-3,5,11(2H,10H)-trione] | 32 ± 1.4 ^a | 43 ± 1.90 ^a % | 0.26 ± 0.01 ^a % | 0.20 ± 0.02 ^a % | 60 | 0.23 ± 0.02 ^a % | 38 ± 0.62 ^b Pg /mL
2 | 5.1 | 96 | 0.053 | > 350 | COc1c2occc2c(OC)c2c(C)c(C3=NC4=CC(=O)N5C(=O)C(=Cc6ccc(Cl)cc6)SC5N4C(=O)C(=Cc4ccc(Cl)cc4)O3)oc12 (stereo not drawn) [Compound 13e, 2,10-bis(4-chlorobenzylidene)-8-(4,8-dimethoxy-3-methylbenzo[1,2-b:5,4-b`]difuran-2-yl)-5H,12aH-thiazolo[2’,3’:2,3]pyrimido[6,1-d][1,3,5]oxadiazepine-3,5,11(2H,10H)-trione] | 28 ± 1.3 ^a | 47 ± 1.7 ^a % | 0.22 ± 0.01 ^a % | 0.17 ± 0.02 ^a % | 64 | 0.19 ± 0.02 ^a % | 34 ± 0.33 ^b Pg /mL
3 | 5.45 | 94 | 0.058 | > 350 | COc1ccc(C=C2OC(c3oc4c(OC)c5occc5c(OC)c4c3C)=NC3=CC(=O)N4C(=O)C(=Cc5ccc(OC)cc5)SC4N3C2=O)cc1 (stereo not drawn) [Compound 13f, 8-(4,8-dimethoxy-3-methylbenzo[1,2-b:5,4-b`]difuran-2-yl)-2,10-bis(4-methoxybenzylidene)-5H,12aH-thiazolo[2’,3’:2,3]pyrimido[6,1-d][1,3,5]oxadiazepine-3,5,11(2H,10H)-trione] | 30 ± 1.8 ^a | 45 ± 0.95 ^a % | 0.24 ± 0.02 ^a % | 0.18 ± 0.02 ^a % | 62 | 0.21 ± 0.01 ^a % | 36 ± 0.25 ^b Pg /mL
